Like-named read-outs stand apart in the source and are kept apart here.
Key:
[1] = Three-day MTT cell growth inhibition assay, 1532NPTX; format: cell-based, human; conditions: human, 1532NPTX cells
[2] = tested on: PC3-M cells; test: Cell invasion of PC3-M cells with altered HSP90β; format: cell-based, human
Description: Fig. 4 KBU2046 decreases phosphorylation of HSP90β. a Probing for KBU2046-induced changes in protein phosphorylation. PC3-M or PC3 cells were pre-treated with 10 µM KBU2046 for 3 days, then with ±TGFβ and the resultant cell lysate probed for changes in protein phosphorylation with the KinomeView® assay. The depicted western blot utilizes KinomeView® phospho-motif antibody, BL4176; the blue arrow denotes an 83 kDa band whose phosphorylation is inhibited by KBU2046 (see Supplementary Fig. 10 for complete KinomeView® assay screening data). b Proteomic analysis. PC3 cells were pre-treated with KBU2046 or vehicle, then with TGFβ, proteins from the resultant cell lysate were immunoprecipitated with BL4176, and HSP90β was identified by LC-MS/MS analysis (see Supplementary Fig. 12 for expanded proteomic assay data). The phospho-motif recognized by the antibody is underlined; S*—denotes Ser226, whose phosphorylation is decreased by KBU2046. c, d The phospho-mimetic changes in HSP90β Ser^226 structure regulate human PCa cell invasion and KBU2046 efficacy. PC3-M cells were transfected with S226A-, S226D-, or WT-HSP90β, or empty vector (VC), treated with KBU2046 or vehicle, and cell invasion measured. Values are the mean ± SEM of a representative experiment of multiple experiments (all in replicates of N = 3); *denotes t-test P value <0.05 between bracketed conditions, or compared to VC […]
Boyden chamber cell invasion assays were performed as previously described by us[30], using either denatured collagen (BD Biosciences) or type IV human collagen (BD Biosciences), with all experiments repeated, each in N = 4 replicates. In some experiments, as indicated, cells were transfected with an expression plasmid, using Lipofectamine 2000™ (Invitrogen), or with siRNA, using DharmaFect Duo (Thermo Scientific) and co-transfected with β-Galactosidase (Plasmid pCMV•SPORT-βgal; Life Technology).
Supplementary Figure 13. Changes in HSP90β Ser226 structure as well as HSP90β expression regulate PCa cell invasion and KBU2046 efficacy. (a) Levels of HSP90β expression after transfection of cells. In manuscript Figs 4c and d, PC3-M cells were transfected with S226A-, S226D-, or WT-HSP90β, or empty vector (VC) and resultant effects upon cell invasion and KBU2046 efficacy measured. Depicted above are associated Western blots probing for HSP90β, FLAG (transfected HSP90β was FLAG-tagged) and GAPDH. (b-d) Knockdown of HSP90β decreases cell invasion and abrogates KBU2046 efficacy. PC3-M cells were transfected with siRNA to HSP90β (siHSP90b) or non-targeting siRNA (siCO). (b) The level of HSP90β (HSP90b) and HSP90α (HSP90a) transcript levels were measured by qRT/PCR, and expressed relative to that of GAPDH. (c) The level of HSP90β protein expression was measured by Western blot. (d) Cells were treated with KBU2046 (46) or vehicle control, and cell invasion measured. Values are the mean±SEM of a representative experiment of multiple experiments (all in replicates of N=3). *denotes t-test P value </= 0.05 compared to siCO.

[3] = Plasma KBU2046 concentration after dosing in chow; format: in vivo; conditions: Balb/c athymic, mouse, oral
Description: For determination of pharmacokinetic (PK) parameters, KBU2046 was administered by either intravenous injection or oral gavage to groups of N = 3 CD1(ICR) mice at 0 (i.e., vehicle only), 25, or 100 mg/kg. Blood was collected into EDTA by terminal cardiac puncture before drug administration (i.e., baseline) and at 5, 10, 15, 30, 45, 60, 90, 120, 180, 240, 360, 480, 960, 1440 min after administration. In separate experiments, as described above, Balb/c athymic mice were dosed with KBU2046 incorporated into chow for 35 days, after which blood was collected by terminal cardiac puncture. Resultant plasma (~250 μl/mouse) was stored at −80 °C.
Plasma KBU2046 concentrations were measured in duplicate by liquid chromatography-tandem mass spectrometry after sample preparation by solid-phase extraction. […] The mass-to-charge ratios of the precursor-to-product ion reactions monitored were 243.5 → 125.1 for KBU2046 and 257.0 → 165.0 for the internal standard. […]

[4] = tested on: human breast cancer LM2-4H2N cells; test: Breast cancer orthotopic implantation and resection survival model; format: in vivo, mouse; conditions: 25 mg/kg oral gavage five times per week, post-surgery adjuvant setting
Description: Breast cancer: orthotopic implantation: Orthotopic implantation of 2 × 10^6 dTomato-LM2-4H2N cells in matrigel:PBS human breast cancer cells into 5–6 week old female SCID-Beige mice (Taconic), followed by resection of resultant primary tumor, provides a model wherein survival is dictated by metastatic burden, and was performed as described. KBU2046 treatment by oral gavage 5 days per week began 4 weeks after resection, with weekly IVIS imaging. Animals were excluded from the analysis if they died and/or met the criteria for euthanasia in the 7 day post-operative period. Experimental groups were randomly assigned based upon size of primary tumor before treatment, in and manner that ensured equal distribution of tumor sizes across treatment groups.

## O=C1c2ccccc2OCC1c1ccc(F)cc1 (racemic) [KBU2046, (±)-3(4-fluorophenyl)chroman-4-one]
[1]
  viability at 3 days, 50 µM: 95.3%
[2]; (S226A)-HSP90β transfected cells
  cell invasion: does not further inhibit cell invasion
[2]; (S226D)-HSP90β transfected cells
  cell invasion: did not significantly inhibit cell invasion
[2]; VC and WT-HSP90β cells
  cell invasion: significantly inhibited invasion
[2]; VC cells
  cell invasion: significantly inhibits invasion
[2]; siRNA-mediated HSP90β knockdown
  anti-invasion efficacy: abrogated KBU2046 efficacy
[3]; 150 mg/kg, mice whose metastasis were suppressed by 92%, read-out: plasma concentration
  concentration at 35 days: 24 nM
[3]; athymic mice, KBU2046 in chow, doses that decreased metastasis, read-out: plasma concentrations
  concentration at 35 days: 1.1 to 24 nM
[4]
  survival: significantly prolonged the survival

Source: publication PMC6014988, “Precision therapeutic targeting of human cancer cell motility” (Nature Communications, 2018)
